Measurements reported in patent US20050197338A1, “Substituted pyrazole urea compounds for the treatment of inflammation” (priority 2003, published 2005).

Each compound was assayed against T1, Rat IKK-2 (Rattus norvegicus, UniProt Q9QY78) (assay: Rat IKK-2 enzyme assay). Conditions: read-out: IC50 (μM) rIKK-2.
T1 sequence (Q9QY78 1-757): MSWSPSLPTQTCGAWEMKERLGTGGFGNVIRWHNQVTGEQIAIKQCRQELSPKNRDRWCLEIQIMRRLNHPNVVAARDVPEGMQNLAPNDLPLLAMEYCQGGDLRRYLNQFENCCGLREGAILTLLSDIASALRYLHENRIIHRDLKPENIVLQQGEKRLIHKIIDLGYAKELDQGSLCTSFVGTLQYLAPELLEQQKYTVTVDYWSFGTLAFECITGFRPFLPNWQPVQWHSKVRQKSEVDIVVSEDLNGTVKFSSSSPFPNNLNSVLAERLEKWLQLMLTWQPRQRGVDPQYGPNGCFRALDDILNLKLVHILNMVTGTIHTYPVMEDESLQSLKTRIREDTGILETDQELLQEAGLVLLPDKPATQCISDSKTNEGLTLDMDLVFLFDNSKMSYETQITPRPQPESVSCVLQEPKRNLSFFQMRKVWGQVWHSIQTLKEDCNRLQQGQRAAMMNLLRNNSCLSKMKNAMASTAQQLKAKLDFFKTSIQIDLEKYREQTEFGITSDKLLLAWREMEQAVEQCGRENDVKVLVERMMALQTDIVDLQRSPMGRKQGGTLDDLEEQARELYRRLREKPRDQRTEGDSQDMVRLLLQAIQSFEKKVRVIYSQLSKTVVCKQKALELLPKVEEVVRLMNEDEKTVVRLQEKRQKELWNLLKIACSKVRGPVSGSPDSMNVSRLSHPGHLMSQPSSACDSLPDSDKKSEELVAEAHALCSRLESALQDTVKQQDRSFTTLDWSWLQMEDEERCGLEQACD
Assay type: biochemical
Description: Kinase activity was measured using a biotinylated […] peptide (Gly-Leu-Lys-Lys-Glu-Arg-Leu-Leu-Asp-Asp-Arg-His-Asp-Ser32-Gly-Leu-Asp-Ser36-Met-Lys-Asp-Glu-Glu) (American Peptide Co.). 20 μL of the standard reaction mixture contained 5 μM biotinylated IκBα peptide, 0.1 μCi/reaction [γ-^33P] ATP (Amersham) (about 1×10^5 cpm), 1 μM ATP (Sigma), 1 mM DTT (Sigma), 2 mM MgCl2 (Sigma), 2 mM MnCl2 (Sigma), 10 mM NaF (Sigma), 25 mM Hepes (Sigma) buffer, pH. 7.6 and 20 μL enzyme solution (50 nM/rxn or 200 ng/rxn) and 10 μL inhibitor in a final volume of 50 μL. After incubation at 25° C. for 60 min, 150 μL resin was added to each well to stop the reaction. Resin was mixed and allowed to settle for 1 h and 50 μL of supernatant was removed to a Micolite 2 flat bottom plate (Dynex). 150 μL of scintillation fluid (Microscint 40) (Packard) was added to each well. Incorporation of [γ-^33P] ATP was measured using a Top-Count NXT (Packard).

IC50 [µM]	SMILES
0.632	Cc1cccc(-n2cc(NC(N)=O)c(C(N)=O)n2)c1 [Example 315, 1-m-tolyl-4-ureido-1H-pyrazole-3-carboxylic acid amide]
0.533	NC(=O)Nc1cn(-c2cccc(F)c2)nc1C(N)=O [Example 316, 1-(3-fluoro-phenyl)-4-ureido-1H-pyrazole-3-carboxylic acid amide]
1.46	NC(=O)Nc1cn(-c2cccc(C(F)(F)F)c2)nc1C(N)=O [Example 317, 1-(3-trifluoromethyl-phenyl)-4-ureido-1H-pyrazole-3-carboxylic acid amide]
8.52	Cc1ccccc1-n1cc(NC(N)=O)c(C(N)=O)n1 [Example 318, 1-o-tolyl-4-ureido-1H-pyrazole-3-carboxylic acid amide]
0.365	Cc1ccc(-n2cc(NC(N)=O)c(C(N)=O)n2)cc1F [Example 326, 4-[(aminocarbonyl)amino]-1-(3-fluoro-4-methylphenyl)-1H-pyrazole-3-carboxamide]

Further lines, the compound ahead of its results:

SMILES	IC50 [µM]
Cc1cc(-n2cc(NC(N)=O)c(C(N)=O)n2)ccc1S(=O)(=O)c1cccc(F)c1 [Example 312, 1-[4-(3-fluoro-benzenesulfonyl)-3-methyl-phenyl]-4-ureido-1H-pyrazole-3-carboxylic acid amide]	0.975
CCc1ccccc1-n1cc(NC(N)=O)c(C(N)=O)n1 [Example 314, 1-(2-ethyl-phenyl)-4-ureido-1H-pyrazole-3-carboxylic acid amide]	> 20
NC(=O)Nc1cn(-c2cccc3c2sc2ccccc23)nc1C(N)=O [Example 324, 4-[(aminocarbonyl)amino]-1-dibenzo[b,d]thien-4-yl-1H-pyrazole-3-carboxamide]	> 20
NC(=O)Nc1cn(-c2ccc(OC(F)(F)F)cc2)nc1C(N)=O [Example 328, 4-[(aminocarbonyl)amino]-1-[4-(trifluoromethoxy)phenyl]-1H-pyrazole-3-carboxamide]	0.446
COc1ccc(-n2cc(NC(N)=O)c(C(N)=O)n2)cc1OC [Example 330, 4-[(aminocarbonyl)amino]-1-(3,4-dimethoxyphenyl)-1H-pyrazole-3-carboxamide]	1.78
CCCOc1ccc(-n2cc(NC(N)=O)c(C(N)=O)n2)cc1 [Example 332, 4-[(aminocarbonyl)amino]-1-(4-propoxyphenyl)-1H-pyrazole-3-carboxamide]	1.08
CCCOc1ccc(-n2cc(NC(N)=O)c(C(N)=O)n2)cc1Cl [Example 334, 4-[(aminocarbonyl)amino]-1-(3-chloro-4-propoxyphenyl)-1H-pyrazole-3-carboxamide]	2.42
